Assay results published in PMC8224802 (Pharmaceutics, 2021).
Like-named read-outs stand apart in the source and are kept apart here.

Experiments:
[1] = In vivo intravenous pharmacokinetic study of RPG without or with QCT in rats; design: species or system Sprague-Dawley rats; settings: for AUC / clearance / half-life / Vd: Sprague-Dawley, rat, plasma, 0.4 mg/kg; for Vd: read-out: Vss
Procedure: Rats were anesthetized via intramuscular injection of 10 mg/kg zoletil. The femoral vein and artery of the rats were cannulated using a polyethylene tube (BD Medical, Franklin Lakes, NJ, USA). […] The vehicle solutions for the intravenous and oral doses were composed of PEG 400 and aqueous 0.3% CMC solution (50:50 v/v). Approximately 300 μL of blood was collected via the femoral artery at 0, 1, 5, 15, 30, 60, 90, 120, 180, and 240 min after intravenous injection and at 10, 20, 30, 45, 60, 90, 120, 180, and 240 min after oral administration.
Non-compartmental analysis (WinNonlin, version 3.1, NCA200 and 201; Certara, Inc., Princeton, NJ, USA) was conducted to estimate the following pharmacokinetic parameters: total area under the plasma concentration–time curve from time zero to time infinity (AUC); total body clearance (CL, calculated as dose/AUC); terminal half-life (t1/2); and apparent volume of distribution at steady state (Vss). For comparison, the extent of absolute oral bioavailability (F; expressed as percent of dose administered) was calculated by dividing the dose-normalized AUC after oral administration by the dose-normalized AUC after intravenous injection. The peak plasma concentration (Cmax) and time to reach Cmax (Tmax) were obtained directly from the measured experimental data.

[2] = In vivo oral pharmacokinetic study of RPG without or with QCT in rats; design: species or system Sprague-Dawley rats; settings: for bioavailability: read-out: F (absolute oral bioavailability)
Procedure: Rats were anesthetized via intramuscular injection of 10 mg/kg zoletil. The femoral vein and artery of the rats were cannulated using a polyethylene tube (BD Medical, Franklin Lakes, NJ, USA). […] The vehicle solutions for the intravenous and oral doses were composed of PEG 400 and aqueous 0.3% CMC solution (50:50 v/v).
For comparison, the extent of absolute oral bioavailability (F; expressed as percent of dose administered) was calculated by dividing the dose-normalized AUC after oral administration by the dose-normalized AUC after intravenous injection. The peak plasma concentration (Cmax) and time to reach Cmax (Tmax) were obtained directly from the measured experimental data.

[3] = In vitro microsomal metabolism of RPG (disappearance) in RLM; format: in vitro ADME, rat; settings: RLM 0.3 mg/mL, 1–500 μM RPG, Michaelis–Menten fit
Procedure: (§1) At 0, 30, and 60 min after starting the metabolic reaction, a 50 μL aliquot of the incubation mixture was sampled and transferred to a clean 1.5-mL microcentrifuge tube containing 150 μL of ice-cold acetonitrile to terminate the metabolic reaction.
(§2) The intrinsic metabolic clearance (CLint) was calculated as Vmax/Km. […] Max and Min are the initial and final Y values, respectively, and the power P represents the Hill coefficient. […] Vmax and Km are the same as those defined in Equation (2). The parameter α is indicative of the inhibition type. The mixed model is a general equation that includes competitive, uncompetitive, and noncompetitive inhibition as special cases. When α = 1, the mixed model is identical to a noncompetitive inhibition. When α is very large (α→∞) or very small (α→0), the mixed model becomes identical to competitive inhibition or uncompetitive inhibition, respectively.

[4] = Plasma protein binding by rapid equilibrium dialysis (rat plasma); format: in vitro ADME, Sprague-Dawley rat
Procedure: (§3) A 200 μL spiked samples and 400 μL PBS were placed into the “sample” and “buffer” chambers of the RED device, respectively. After 4-h incubation to equilibrate between the buffer and plasma compartments, the RED plate was sampled from both compartments. The samples were matrix-matched for analysis by addition of either diluted plasma or buffer; (a) blank diluted plasma added to the buffer samples and (b) blank buffer added to the diluted plasma sample, at a ratio of 50:50 v/v. The unbound fractions in microsomes and diluted plasma were determined by dividing the analyte/IS peak area ratios of the (a) sample by those of the (b) sample. The unbound fraction in diluted plasma (fu,d) was converted to the unbound fraction in undiluted plasma (fu) using a Kalvass equation as below (DF: dilution factor). (1) fu=1/DF/[(1/fu,d)−1]+1/DF

[5] = Plasma protein binding by rapid equilibrium dialysis (human plasma); format: in vitro ADME
Procedure: as §3

[6] = system: microsomal metabolism of RPG in RLM; assay: In vitro inhibition of RPG metabolism by QCT in RLM; format: in vitro ADME, rat; settings: RLM
Procedure: The intrinsic metabolic clearance (CLint) was calculated as Vmax/Km. […] The parameter α is indicative of the inhibition type. The mixed model is a general equation that includes competitive, uncompetitive, and noncompetitive inhibition as special cases. When α = 1, the mixed model is identical to a noncompetitive inhibition. When α is very large (α→∞) or very small (α→0), the mixed model becomes identical to competitive inhibition or uncompetitive inhibition, respectively.

[7] = Blood-to-plasma concentration ratio (rat whole blood); format: in vitro ADME; settings: RPG and QCT 5 μM each
Procedure: A plasma sample was obtained by centrifugation of the blood sample at 2000× g for 5 min.

[8] = In vitro microsomal metabolism of RPG (disappearance) in HLM; format: in vitro ADME, human; settings: for Km: human, human liver microsomes
Procedure: as §1, §2

[9] = humans; cited from earlier work
[10] = Microsomal protein binding by rapid equilibrium dialysis (RLM); format: in vitro ADME, rat
Procedure: as §3

[11] = RPG 0.4 mg/kg iv, QCT 25 mg/kg iv
[12] = iv, RPG 0.4 mg/kg iv with QCT 25 mg/kg iv
[13] = iv, RPG 0.4 mg/kg iv, RPG alone
[14] = Sprague-Dawley, rat, plasma, po, 0.4 mg/kg, rats, RPG 0.4 mg/kg oral with QCT 100 mg/kg oral
[15] = Sprague-Dawley, rat, plasma, po, 0.4 mg/kg, rats, RPG 0.4 mg/kg oral, RPG alone
[16] = rats, RPG 0.4 mg/kg oral with QCT 100 mg/kg oral
[17] = rats, RPG 0.4 mg/kg oral, QCT 100 mg/kg oral
[18] = rats, RPG 0.4 mg/kg oral, RPG alone

For `CCOc1cc(CC(=O)N[C@@H](CC(C)C)c2ccccc2N2CCCCC2)ccc1C(=O)O` [RPG, Repaglinide], the “Hepatic availability (FH)” value ([1]; 1 − EH) was 0.818–0.886, the AeU ([1]; RPG 0.4 mg/kg iv with QCT 25 mg/kg iv) was 1.32 ± 0.88 % of dose and the “AUC of RPG higher with concurrent QCT than in control rats” value [1, 11] was 83.4%. The “CL of RPG lower with concurrent QCT than in control rats” value [1, 11] was 44.9%, the “Difference in Vss of RPG between QCT and control groups” value [1, 11] was “no significant differences” and the “t1/2 of RPG higher with concurrent QCT than in control rats” value [1, 11] was 40.8%. The AeU ([1]; RPG 0.4 mg/kg iv, RPG alone) was 1.60 ± 0.77 % of dose, the “Increase of AUC of intravenous RPG after concurrent QCT” value ([1]; RPG iv with QCT iv vs RPG alone) was 1.83 fold and the AUC [1, 12] was 1550 ng·h/mL. The clearance [1, 12] was 4.36 ± 0.54 mL/min/kg, the half-life [1, 12] was 57.4 ± 10.6 min and the Vd [1, 12] was 0.269 ± 0.025 L/kg. It also gave an AUC [1, 13] of 845 ng·h/mL, a clearance [1, 13] of 7.92 ± 0.47 mL/min/kg and a half-life [1, 13] of 40.8 ± 4.2 min. The Vd [1, 13] was 0.293 ± 0.018 L/kg, the “Urinary and fecal excretion of RPG administered intravenously” value ([1]; iv) was ≤ 1.60 % of the dose and the “Hepatic clearance CLH (blood clearance, CL/RB)” value ([1]; iv RPG alone, assuming exclusive hepatic metabolism) was 9.11 mL/min/kg. The AUC [2, 14] was 803 ng·h/mL, the Cmax [2, 14] was 238 ± 76 ng/mL and the half-life [2, 14] was 148 ± 49 min. For the same molecule, the bioavailability [2, 14] was 95.1%, the Cmax [2, 15] was 129 ± 33 ng/mL and the half-life [2, 15] was 139 ± 66 min. The bioavailability [2, 15] was 50.7%, the Tmax ([2]; Sprague-Dawley, rat, plasma, po, 0.4 mg/kg, read-out: Tmax, median (range) (converted)) was 45 min and the AeGI [2, 16] was 2.90 ± 2.50 % of dose. For the same molecule, the AeU [2, 16] was 0.371 ± 0.336 % of dose, the “Tmax, median (range)” value [2, 16] was 45 (30–60) min and the “AUC of RPG higher with concurrent QCT than in control rats” value [2, 17] was 87.6%. The “Cmax of RPG higher with concurrent QCT than in control rats” value [2, 17] was 84.2%, the AeGI [2, 18] was 3.41 ± 1.65 % of dose and the AeU [2, 18] was 0.458 ± 0.441 % of dose. The “Increase of AUC of orally administered RPG by oral QCT” value ([2]; rats, RPG oral with QCT 100 mg/kg oral vs RPG alone) was 1.88 fold, the “Intestinal availability (FG)” value ([2]; rats, from F = Fabs × FG × FH with Fabs assumed 1) was 0.572–0.620 and the “Fecal excretion of oral RPG” value ([2]; rats, oral) was 2.21–5.78 % of the dose administered. For the same molecule, the “Vmax, metabolism of RPG” value [3] was 3070 ± 960 pmol/min/mg protein, the fraction unbound at 4 h, 5 μM ([4]; Sprague-Dawley, rat, plasma (20-fold diluted), read-out: fuP (unbound fraction in plasma)) was 0.0761 ± 0.0094 and the “Change of fuP of RPG by the presence of QCT” value ([4]; rat plasma, RPG and QCT 5 μM each) was “not significantly altered”. For the same molecule, the “Change of fuP of RPG by the presence of QCT” value ([5]; human plasma, RPG and QCT 5 μM each) was “not significantly altered”, the fraction unbound at 4 h, 5 μM ([5]; human, plasma (20-fold diluted), read-out: fuP (unbound fraction in plasma)) was 0.0533 ± 0.006 and the “Km of RPG metabolism in the Ki estimation study” value ([6]; QCT 0 μM) was 53 µM. The “Km of RPG metabolism in the Ki estimation study” value ([6]; QCT 200 μM) was 81 µM, the “Change of RB of RPG by the presence of QCT” value [7] was “not significantly altered” and the “Vmax, metabolism of RPG” value ([8]; HLM 0.3 mg/mL, 1–500 μM RPG, Michaelis–Menten fit) was 2850 ± 417 pmol/min/mg protein. For the same molecule, the Km ([8]; Km, metabolism of RPG, HLM 0.3 mg/mL, 1–500 μM RPG, Michaelis–Menten fit) was 27 to 69.4 µM, the Km ([8]; Table S3, source Figure 3, read-out: Km used for estimation of R) was 27 µM and the “F of RPG” value [9] was “approximately 62.5%”. The “Change of fuMIC of RPG by the presence of QCT” value ([10]; RLM, RPG and QCT 5 μM each) was “not significantly altered” and the fraction unbound at 4 h, 5 μM ([10]; rat, liver microsomes, read-out: fuMIC (unbound fraction in liver microsomes)) was 0.671 ± 0.009.
